What was measured:
[1] = 40℃, 75% relative humidity; cited from earlier work
[2] = by moisture in additives when formulated with usual excipients and binders; cited from earlier work
[3] = Optical purity (chiral HPLC) after storage for 4 weeks at 60℃, 75% relative humidity, exposed or sealed; format: physicochemical

Row | optical purity after 4 weeks, exposed state ([3]; exposed) [%] | optical purity after 4 weeks ([3]; exposed or sealed) | optical purity after 4 weeks, sealed state ([3]; sealed) [%] | Compound | formation of (R)-isomer and degradation products [1] | racemization to the (R)-isomer [2]
1 |  |  |  | O=C(O)CCCN1CCC(O[C@@H](c2ccc(Cl)cc2)c2ccccn2)CC1.O=S(=O)(O)c1ccccc1 [(S)-베포타스틴 벤젠술폰산염] | (R)-배열의 이성체 및 분해물이 생성된다 | 
2 | 95.56 | 95.5~97.4% | 97.32 | O=C(O)CCCN1CCC(O[C@@H](c2ccc(Cl)cc2)c2ccccn2)CC1 [유상의 (S)-베포타스틴] |  | (R)-배열의 이성체로 라세미화가 일어나

Source: patent KR20110136074A, “안정한 에스-베포타스틴 함유 약학조성물 및 이의 제조방법” (이우영, priority 2010, dated 2011)
